In general, pIC50 refers to −log10 of the IC50, conventionally taken in molar units. Low readings indicate a high IC50, high ones a low IC50. What is called thermodynamic solubility is solubility found after equilibrating the solid with the medium.

One data set is described as follows: LYSA solubility assay. To be noted: for solubility thermodynamic: thermodynamic from solid. In kind it is physicochemical. Here is the method:
LYSA study is used to determine the aqueous solubility of tested compounds. Samples are prepared in duplicate from 10 mM DMSO stock solution. After evaporation of DMSO with a centrifugal vacuum evaporator, compounds are dissolved in a 0.05 M phosphate buffer (pH 6.5), stirred for one hr and shaken for two hrs. After one night, the solutions are filtered using a microtiter filter plate. Then the filtrate and its 1/10 dilution are analyzed by HPLC-UV. In addition, a four-point calibration curve is prepared from the 10 mM stock solutions and used for the solubility determination of the compounds. The results are in μg/mL. In case the percentage of sample measured in solution after evaporation divided by the calculated maximum of sample amount is bigger than 80%, the solubility is reported as bigger than this value.

For a further data set, the target named is T1, human TLR7 (Homo sapiens, UniProt Q9NYK1).
T1 construct: host or cells: HEK293 (HEK-Blue hTLR7)
T1 sequence (Q9NYK1 27-1049): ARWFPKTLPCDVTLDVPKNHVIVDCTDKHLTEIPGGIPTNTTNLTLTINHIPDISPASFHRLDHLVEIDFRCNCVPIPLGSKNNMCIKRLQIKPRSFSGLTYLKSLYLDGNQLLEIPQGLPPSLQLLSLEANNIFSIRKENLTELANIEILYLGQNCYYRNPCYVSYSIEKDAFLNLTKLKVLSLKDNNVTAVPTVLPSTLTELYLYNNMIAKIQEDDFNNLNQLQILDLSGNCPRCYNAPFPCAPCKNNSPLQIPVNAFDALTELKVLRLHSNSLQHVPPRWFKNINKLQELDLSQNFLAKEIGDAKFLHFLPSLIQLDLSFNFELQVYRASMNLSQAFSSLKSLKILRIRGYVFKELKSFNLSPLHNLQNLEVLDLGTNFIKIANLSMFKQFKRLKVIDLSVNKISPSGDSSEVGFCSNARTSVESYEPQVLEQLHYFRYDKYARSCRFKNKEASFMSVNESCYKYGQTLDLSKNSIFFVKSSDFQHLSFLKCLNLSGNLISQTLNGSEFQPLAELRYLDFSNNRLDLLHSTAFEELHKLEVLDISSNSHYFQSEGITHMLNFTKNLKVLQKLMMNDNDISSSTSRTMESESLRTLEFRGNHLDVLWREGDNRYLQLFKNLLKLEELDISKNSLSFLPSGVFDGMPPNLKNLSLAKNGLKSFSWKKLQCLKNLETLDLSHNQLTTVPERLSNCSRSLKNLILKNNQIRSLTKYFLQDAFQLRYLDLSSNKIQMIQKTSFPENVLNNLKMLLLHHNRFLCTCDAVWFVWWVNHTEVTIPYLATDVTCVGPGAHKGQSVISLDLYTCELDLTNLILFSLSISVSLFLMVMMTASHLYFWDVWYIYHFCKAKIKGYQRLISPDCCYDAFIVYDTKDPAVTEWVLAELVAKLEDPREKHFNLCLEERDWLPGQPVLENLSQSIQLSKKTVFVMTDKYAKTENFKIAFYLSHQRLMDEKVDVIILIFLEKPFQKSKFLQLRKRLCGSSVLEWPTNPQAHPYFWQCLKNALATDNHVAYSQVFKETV
Put plainly: HEK293-Blue-hTLR-7 cells assay (SEAP reporter, R848 stimulation). In kind it is cell-based. To be noted: HEK293-Blue-hTLR7 cells, R848, 20 hrs. Here is the method:
The following tests were carried out in order to determine the activity of the compounds of formula (I) in HEK293-Blue-hTLR-7/8/9 cells assay.
HEK293-Blue-hTLR-7 Cells Assay:
A stable HEK293-Blue-hTLR-7 cell line was purchased from InvivoGen (Cat. #: hkb-htlr7, San Diego, Calif. USA). These cells were originally designed for studying the stimulation of human TLR7 by monitoring the activation of NF-κB. A SEAP (secreted embryonic alkaline phosphatase) reporter gene was placed under the control of the IFN-β minimal promoter fused to five NF-κB and AP-1-binding sites. The SEAP was induced by activating NF-κB and AP-1 via stimulating HEK-Blue hTLR7 cells with TLR7 ligands. Therefore the reporter expression was declined by TLR7 antagonist under the stimulation of a ligand, such as R848 (Resiquimod), for incubation of 20 hrs. The cell culture supernatant SEAP reporter activity was determined using QUANTI-Blue™ kit (Cat. #: rep-qbl, Invivogen, San Diego, Calif., USA) at a wavelength of 640 nm, a detection medium that turns purple or blue in the presence of alkaline phosphatase.
HEK293-Blue-hTLR7 cells were incubated at a density of 250,000˜450,000 cells/mL in a volume of 170 μL in a 96-well plate in Dulbecco's Modified Eagle's medium (DMEM) containing 4.5 g/L glucose, 50 U/mL penicillin, […], […], 2 mM L-glutamine, 10% (v/v) heat-inactivated fetal bovine serum with addition of 20 μL A test compound in a serial dilution in the presence of final DMSO at 1% and 10 μL of 20 uM R848 in above DMEM, perform incubation under 37° C. in a CO2 incubator for 20 hrs. Then 20 μL of the supernatant from each well was incubated with 180 μQuanti-blue substrate solution at 37° C. for 2 hrs and the absorbance was read at 620˜655 nm using a spectrophotometer. The signalling pathway that TLR7 activation leads to downstream NF-κB activation has been widely accepted, and therefore similar reporter assay was modified for evaluating TLR7 antagonist.

[1] abbreviates: 0.05 M phosphate buffer (pH 6.5).
The mark [2] stands for this setting: 0.05 M phosphate buffer, pH 6.5, aqueous buffer.

pIC50: −log10 of the molar value. ≈ marks a conversion by molar mass, not a printed value. Some results are limits rather than exact numbers.

In the case of `CC(NC(=O)[C@H]1CN(c2ccc(C(F)(F)F)c3ncccc23)C[C@@H](C)O1)C1CN(C)CCO1` (single isomer, unassigned) [Example 35B], the LYSA in the data set “LYSA solubility assay” (setting [1]) was >625.0 µg/mL. Further, the pIC50 against human TLR7 was 7.19.
On to `C[C@@H]1CN(c2ccc(C(F)(F)F)c3ncccc23)C[C@H](C(=O)N2CCC3(CCNCC3)CC2)O1` [Example 32, 3,9-diazaspiro[5.5]undecan-3-yl-[(2R,6R)-6-methyl-4-[8-(trifluoromethyl)-5-quinolyl]morpholin-2-yl]methanone], for which the thermodynamic solubility in “LYSA solubility assay” (setting [2]) was > 640 µg/mL. Besides, the pIC50 on human TLR7 was 7.11.
In the same order, the values of `C[C@@H]1CN(c2ccc(I)c3ncccc23)C[C@H](C(=O)NCC2CN(C)CCO2)O1` (stereo partly drawn) [Example 39, (2R,6R)-4-(8-iodo-5-quinolyl)-6-methyl-N-[(4-methylmorpholin-2-yl)methyl]morpholine-2-carboxamide] are > 625 µg/mL and 8.15.
In the same order, the values of `C[C@@H]1CN(c2ccc(C(F)(F)F)c3ncccc23)C[C@H](C(=O)NCC2COCCN2C)O1` (stereo partly drawn) [Example 11, (2R,6R)-6-methyl-N-[(4-methylmorpholin-3-yl)methyl]-4-[8-(trifluoromethyl)-5-quinolyl]morpholine-2-carboxamide] are > 740 µg/mL and 7.29.
The matching figures for `C[C@@H]1CN(c2ccc(C(F)(F)F)c3ncccc23)C[C@H](C(=O)NC2C3CCCC2CNC3)O1` (stereo partly drawn) [Example 45, (2R,6R)-N-(3-azabicyclo[3.3.1]nonan-9-yl)-6-methyl-4-[8-(trifluoromethyl)-5-quinolyl]morpholine-2-carboxamide]: > 660 µg/mL and > 8.52.
On to `C[C@@H]1CN(c2ccc(C(F)(F)F)c3ncccc23)C[C@H](C(=O)NC2C3CNCC2COC3)O1` (single isomer, unassigned) [Example 46A], for which the solubility (thermodynamic) in “LYSA solubility assay” (setting [2]) was > 650 µg/mL. At human TLR7, this molecule had a pIC50 of 8.10.
Take `C[C@@H]1CN(c2ccc(C(F)(F)F)c3ncccc23)C[C@H](C(=O)NCC2CNCC2(F)F)O1` (stereo partly drawn) [Example 29, (2R,6R)-N-[(4,4-difluoropyrrolidin-3-yl)methyl]-6-methyl-4-[8-(trifluoromethyl)-5-quinolyl]morpholine-2-carboxamide]: in the data set “LYSA solubility assay” (setting [2]), the thermodynamic solubility came out at 565 µg/mL (≈ 1230 µM). The pIC50 at human TLR7 was 7.43.
In the same order, the values of `C[C@H]1C[C@@H](N)CN(c2ccc(Cl)c3ncccc23)C1` [Example 23, (3R,5S)-1-(8-chloro-5-quinolyl)-5-methyl-piperidin-3-amine] are > 315 µg/mL and 8.15.
In the same order, the values of `Cc1ccc(N2C[C@@H](C)O[C@@H](C(=O)N[C@@H]3CNC[C@@H]3F)C2)c2cccnc12` [Example 21, cis-(2R,6R)-N-14-fluoropyrrolidin-3-yl1-6-methyl-4-(8-methyl-5-quinolyl)morpholine-2carboxamide] are > 435 µg/mL and 7.15.
In the same order, the values of `C[C@@H]1CN(c2ccc(C(F)(F)F)c3ncccc23)C[C@H](C(=O)NC2C3CCC2CNC3)O1` (stereo partly drawn) [Example 31, (2R,6R)-N-(3-azabicyclo[3.2.1]octan-8-yl)-6-methyl-4-[8-(trifluoromethyl)-5-quinolyl]morpholine-2-carboxamide] are > 597 µg/mL and 8.30.
Regarding `C[C@@H]1CN(c2ccc(C(F)(F)F)c3ncccc23)C[C@H](C(=O)NCC(C)(C)N)O1` [Example 6, (2R,6R)-N-(2-amino-2-methyl-propyl)-6-methyl-4-[8-(trifluoromethyl)-5-quinolyl]morpholine-2-carboxamide], in the data set “LYSA solubility assay” (setting [2]), the thermodynamic solubility is > 640 µg/mL. This molecule also showed a negative-log IC50 (pIC50) on human TLR7 of 7.51.
On to `Cc1ccc(N2C[C@@H](C)O[C@@H](C(=O)NC3CCN(C)CC3)C2)c2cccnc12` [Example 16, (2R,6R)-6-methyl-N-(1-methyl-4-piperidyl)-4-(8-methyl-5-quinolyl)morpholine-2-carboxamide], for which, in “LYSA solubility assay” (setting [2]), the thermodynamic solubility was > 450 µg/mL. The molecule further gave a pIC50 against human TLR7 of 7.13.
Regarding `C[C@@H]1CN(c2ccc(C(F)(F)F)c3ncccc23)C[C@H](C(=O)NC2CN(C)CC23CC3)O1` (stereo partly drawn) [Example 9, (2R,6R)-6-methyl-N-(5-methyl-5-azaspiro[2.4]heptan-7-yl)-4-[8-(trifluoromethyl)-5-quinolyl]morpholine-2-carboxamide], in “LYSA solubility assay” (aqueous buffer, 0.05 M phosphate buffer (pH 6.5)), the thermodynamic solubility was > 685 µg/mL. The molecule also gave a pIC50 against human TLR7 of 7.85.
In “LYSA solubility assay” (setting [2]), `C[C@@H]1CN(c2ccc(C(F)(F)F)c3ncccc23)C[C@H](C(=O)NC[C@@H]2CC(F)(F)CN2)O1` [Example 30] displayed a solubility (thermodynamic) of 375 µg/mL (≈ 818 µM). On human TLR7, this molecule gave a negative-log IC50 (pIC50) of 6.43.
With `C[C@@H]1CN(c2ccc(C(F)(F)F)c3ncccc23)C[C@H](C(=O)NC2CC3CNCC32)O1` (single isomer, unassigned) [Example 49B], the LYSA in “LYSA solubility assay” (setting [1]) is >690.0 µg/mL. This molecule also gave a negative-log IC50 (pIC50) against human TLR7 of 7.70.

These data come from US20220363665A1, “QUINOLINE COMPOUNDS FOR THE TREATMENT OF AUTOIMMUNE DISEASE” (Hoffmann-La Roche Inc., priority 2019, published 2022).
